US20250354195A1, “METHOD OF SCREENING” (UNIVERSITY OF DUNDEE, priority 2024, published 2025)

Biological target: T1, GSK3β (Homo sapiens, UniProt P49841+Q96SW2)
T1 construct: genetically engineered using CRISPR/Cas9 technology to endogenously tag GSK3p protein with HiBiT tag at the C-terminus; host or cells: HEK293 cells, CRISPR/Cas9 knock-in of HiBiT at the endogenous GSK3B locus
Test: High throughput screening for GSK3β-HiBiT targeted degradation (Nano-Glo HiBiT Lytic luminescence)
Format: cell-based
Settings: HEK293 cells with endogenously HiBiT-tagged GSK3β, 24 h incubation, products of one-pot plate array (FIG. 1, Method A); for DC50: 0.01-30 μM, read-out: DC50 (half-maximal degradation concentration)
Method: High throughput Screening for GSK3 β-HiBiTL: Test compounds were transferred into Echo plate (Beckman, 001-12782, Echo LDV384) using BRAVO automated liquid handling platform which serves as source plate (10 mM stocks in DMSO). Serial dilutions of the compounds were done using Echo550 liquid handler as 30 μM, 10 μM, 3 μM, 1 μM, 0.3 μM, 0.1 μM, 0.03 μM and 0.01 μM in final concentrations in assay plates. One column of each assay plate was reserved for DMSO control treatments. After compounds were serially diluted in assay plates, HEK293 cells (CRL-1573, ATCC) genetically engineered using CRISPR/Cas9 technology to endogenously tag GSK3p protein with HiBiT tag at the C-terminus (Schwinn et al., 2018, CRISPR-mediated tagging of endogenous proteins with a luminescent peptide, ACS Chem. Biol., 13(2), 467-74) were seeded at a density of 5000 cells/well in 50 μL complete media in 384-well TC-grade white plates (Perkin Elmer, Culturplate, 6007619) with the help of Multidrop Combi liquid dispenser and cells were incubated for 24 h with compounds at 37° C. in humidified incubators with 5% CO2. At the end of the treatment, equal volume of Nano-Glo HiBiT Lytic reagent (Promega N3030) supplied with Nano-Glo HiBiT Lytic substrate and LgBiT Protein were added into each well according to manufacturer's instructions, and cells were incubated on an orbital shaker for 15 seconds and for a further 15 minutes at room temperature. Luminescence signals were measured in an appropriate plate reader (PHERAstar FSX, BMG Labtech) (Dixon et al., 2016, NanoLuc complementation reporter optimized for accurate measurement of protein interactions in cells, ACS Chem. Biol., 11, 400-8). Changes in protein abundance upon compound treatment were further analysed by normalising raw luminescence values to DMSO values and fold changes were plotted using for parameter logistic regression with GraphPad Prism (10.1.2).
Furthermore, the present investigators have shown that bifunctional compounds manufactured using the method of the present disclosure may be effective in the uses of bifunctional compounds, for example as PROTACs in targeted protein degradation (TPD). […] GSK3p was targeted for degradation using a binder for GSK3p, and a binder for CRBN; the binders were comprised in molecules comprising moieties for reacting with the orthogonally reactive moieties of the linker. […] The “identifier” identifies the well of the multi-well plate that has been sampled, e.g., AHD2B-1-A1 relates to the top left well in FIG. 1. The DC50 provides an indication of the potency of the bifunctional compound in targeted degradation; Dmax provides an indication of the maximum possible degradation. The use of these metrics is further described in Flexible Fitting of PROTAC Concentration-Response Curves with Changepoint Gaussian Processes, Semenova et al., SLAS Discovery, 2021, 26, 1212-1224.

T1 sequence (P49841 whole entry): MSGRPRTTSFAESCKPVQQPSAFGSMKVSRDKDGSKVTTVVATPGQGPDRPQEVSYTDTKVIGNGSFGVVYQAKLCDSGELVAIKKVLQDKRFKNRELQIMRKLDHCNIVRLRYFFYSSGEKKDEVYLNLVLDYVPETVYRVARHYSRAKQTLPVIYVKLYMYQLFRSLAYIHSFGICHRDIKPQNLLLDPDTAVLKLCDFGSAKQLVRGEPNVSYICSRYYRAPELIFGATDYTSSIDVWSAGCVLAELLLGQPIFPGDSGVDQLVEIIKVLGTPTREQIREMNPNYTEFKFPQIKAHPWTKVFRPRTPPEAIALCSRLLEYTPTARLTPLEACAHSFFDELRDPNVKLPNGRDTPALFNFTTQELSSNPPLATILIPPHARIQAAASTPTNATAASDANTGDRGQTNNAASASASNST
T1 sequence (Q96SW2 whole entry): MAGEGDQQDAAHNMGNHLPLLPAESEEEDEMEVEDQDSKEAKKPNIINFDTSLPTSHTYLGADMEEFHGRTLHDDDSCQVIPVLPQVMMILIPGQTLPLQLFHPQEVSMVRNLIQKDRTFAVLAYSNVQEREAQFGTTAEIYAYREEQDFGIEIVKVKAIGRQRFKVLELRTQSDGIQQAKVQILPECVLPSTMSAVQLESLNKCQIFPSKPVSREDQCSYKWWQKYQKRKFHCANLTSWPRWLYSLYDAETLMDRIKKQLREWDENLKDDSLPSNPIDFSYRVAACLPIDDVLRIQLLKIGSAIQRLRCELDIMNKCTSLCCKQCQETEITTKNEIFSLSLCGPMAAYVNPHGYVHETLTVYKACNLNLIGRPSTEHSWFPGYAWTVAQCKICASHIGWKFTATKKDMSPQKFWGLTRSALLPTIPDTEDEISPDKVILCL
T1 sequence (Q16531 whole entry partner): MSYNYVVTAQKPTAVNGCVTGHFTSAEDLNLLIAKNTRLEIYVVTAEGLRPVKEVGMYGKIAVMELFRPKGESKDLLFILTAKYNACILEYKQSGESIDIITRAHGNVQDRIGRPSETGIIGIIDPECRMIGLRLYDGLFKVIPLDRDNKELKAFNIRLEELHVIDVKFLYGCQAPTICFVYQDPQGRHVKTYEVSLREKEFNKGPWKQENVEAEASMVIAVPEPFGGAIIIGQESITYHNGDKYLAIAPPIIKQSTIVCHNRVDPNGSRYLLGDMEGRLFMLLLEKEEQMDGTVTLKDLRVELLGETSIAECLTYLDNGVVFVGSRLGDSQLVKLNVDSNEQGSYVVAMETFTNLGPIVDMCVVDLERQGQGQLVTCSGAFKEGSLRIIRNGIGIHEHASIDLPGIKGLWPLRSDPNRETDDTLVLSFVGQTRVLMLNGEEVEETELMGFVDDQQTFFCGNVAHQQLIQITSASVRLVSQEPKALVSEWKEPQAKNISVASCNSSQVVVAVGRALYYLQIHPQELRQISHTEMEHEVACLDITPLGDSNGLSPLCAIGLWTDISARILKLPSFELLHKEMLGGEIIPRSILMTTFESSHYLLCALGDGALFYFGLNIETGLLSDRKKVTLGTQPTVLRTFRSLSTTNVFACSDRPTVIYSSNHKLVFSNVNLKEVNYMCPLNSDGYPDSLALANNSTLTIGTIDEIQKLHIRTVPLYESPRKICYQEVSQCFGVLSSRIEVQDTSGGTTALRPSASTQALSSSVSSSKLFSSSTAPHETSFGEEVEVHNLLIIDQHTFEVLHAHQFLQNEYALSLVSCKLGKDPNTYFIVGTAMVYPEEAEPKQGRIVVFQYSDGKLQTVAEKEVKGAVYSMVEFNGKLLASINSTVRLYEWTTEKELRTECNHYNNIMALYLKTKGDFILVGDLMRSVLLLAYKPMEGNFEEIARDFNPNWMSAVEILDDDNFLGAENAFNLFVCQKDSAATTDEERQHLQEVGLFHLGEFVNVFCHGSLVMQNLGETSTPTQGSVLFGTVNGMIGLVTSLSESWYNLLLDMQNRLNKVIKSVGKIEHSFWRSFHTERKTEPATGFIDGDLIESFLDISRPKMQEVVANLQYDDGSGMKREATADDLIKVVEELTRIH

DC50	Dmax (maximal effect)	Compound
> 10 µM	<30%	COc1ccc(-c2ocnc2C(=O)NCCCn2cc(CCCCCN3CCN(Cc4ccc(N5CCC(=O)NC5=O)cc4)CC3)nn2)cc1Cl [AHD2B-1-G7]
> 10 µM	<30%	COc1ccc(-c2ocnc2C(=O)NCCCn2cc(-c3cccc(CN4CCN(Cc5cccc(N6CCC(=O)NC6=O)c5)CC4)n3)nn2)cc1Cl [AHD2B-1-A8]
> 10 µM	<30%	COc1ccc(-c2ocnc2C(=O)NCCCn2cc(COc3ccc(CN4CCN(Cc5ccc(N6CCC(=O)NC6=O)cc5)CC4)cc3)nn2)cc1Cl [AHD2B-1-G3]
< 0.25 µM	41%	COc1ccc(-c2ocnc2C(=O)NCCCn2cc(CCCOc3ccc(CN4CCN(Cc5ccc6c(N7CCC(=O)NC7=O)nn(C)c6c5)CC4)cc3)nn2)cc1Cl [AHD2B-1-D4]
> 10 µM	<30%	COc1ccc(-c2ocnc2C(=O)NCCCn2cc(-c3cccc(CN4CCN(Cc5ccc(C(=O)NC6CCC(=O)NC6=O)nc5)CC4)n3)nn2)cc1Cl (stereo not shown) [AHD2B-1-F8]
> 10 µM	<30%	COc1ccc(-c2ocnc2C(=O)NCCCn2cc(COc3ccc(CN4CCN(Cc5ccc(C(=O)NC6CCC(=O)NC6=O)nc5)CC4)cc3)nn2)cc1Cl (stereo not shown) [AHD2B-1-F3]
> 10 µM	<30%	COc1ccc(-c2ocnc2C(=O)NCCCn2cc(-c3cccc(CN4CCN(Cc5ccc(C(=O)NC6CCC(=O)NC6=O)c(F)c5)CC4)n3)nn2)cc1Cl (stereo not shown) [AHD2B-1-C8]
7.1 µM	39%	COc1ccc(-c2ocnc2C(=O)NCCCn2cc(CCCCCN3CCCN(Cc4ccc(C(=O)NC5CCC(=O)NC5=O)c(F)c4)CC3)nn2)cc1Cl (stereo not shown) [AHD2B-1-C9]
> 10 µM	<30%	COc1ccc(-c2ocnc2C(=O)NCCCn2cc(COC3CCN(Cc4ccc(N5CCC(=O)NC5=O)cc4)CC3)nn2)cc1Cl [AHD2B-1-G5]
> 10 µM	<30%	COc1ccc(-c2ocnc2C(=O)NCCCn2cc(CCCCCN3CCN(Cc4cccc(N5CCC(=O)NC5=O)c4)CC3)nn2)cc1Cl [AHD2B-1-A7]
> 10 µM	<30%	COc1ccc(-c2ocnc2C(=O)NCCCn2cc(CCCCCN3CCCN(CC(=O)N[C@H](C(=O)N4C[C@H](O)C[C@H]4C(=O)NCc4ccc(-c5scnc5C)cc4)C(C)(C)C)CC3)nn2)cc1Cl [AHD2B-1-B9]
> 10 µM	<30%	COc1ccc(-c2ocnc2C(=O)NCCCn2cc(COc3ccc(CN4CC5(CN(CC(=O)N[C@H](C(=O)N6C[C@H](O)C[C@H]6C(=O)NCc6ccc(-c7scnc7C)cc6)C(C)(C)C)C5)C4)cc3)nn2)cc1Cl [AHD2B-1-B11]
0.55 µM	35%	COc1ccc(-c2ocnc2C(=O)NCCCn2cc(COC3CCN(Cc4ccc5c(N6CCC(=O)NC6=O)nn(C)c5c4)CC3)nn2)cc1Cl [AHD2B-1-D5]
> 10 µM	<30%	COc1ccc(-c2ocnc2C(=O)NCCCn2cc(CCCCN3CCN(Cc4cccc(N5CCC(=O)NC5=O)c4)CC3)nn2)cc1Cl [AHD2B-1-A1]
> 10 µM	<30%	COc1ccc(-c2ocnc2C(=O)NCCCn2cc(-c3cccc(CN4CCN(CC(=O)N[C@H](C(=O)N5C[C@H](O)C[C@H]5C(=O)NCc5ccc(-c6scnc6C)cc5)C(C)(C)C)CC4)n3)nn2)cc1Cl [AHD2B-1-B8]
> 10 µM	<30%	COc1ccc(-c2ocnc2C(=O)NCCCn2cc(CCCCCN3CCN(Cc4ccc(C(=O)NC5CCC(=O)NC5=O)nc4)CC3)nn2)cc1Cl (stereo not shown) [AHD2B-1-F7]

DC50	Dmax (maximal effect)	Compound
> 10 µM	<30%	COc1ccc(-c2ocnc2C(=O)NCCCn2cc(-c3cccc(CN4CCN(Cc5ccc(N6CCC(=O)NC6=O)cc5)CC4)n3)nn2)cc1Cl [AHD2B-1-G8]
> 10 µM	<30%	COc1ccc(-c2ocnc2C(=O)NCCCn2cc(COc3ccc(CN4CCC5(C4)CN(CC(=O)N[C@H](C(=O)N4C[C@H](O)C[C@H]4C(=O)NCc4ccc(-c6scnc6C)cc4)C(C)(C)C)C5)cc3)nn2)cc1Cl [AHD2B-1-B6]
> 10 µM	<30%	COc1ccc(-c2ocnc2C(=O)NCCCn2cc(-c3ccc(CN4CCN(Cc5ccc(N6CCC(=O)NC6=O)cc5)CC4)cn3)nn2)cc1Cl [AHD2B-1-G2]
> 10 µM	<30%	COc1ccc(-c2ocnc2C(=O)NCCCn2cc(COc3ccc(CN4CCN(CC(=O)N[C@H](C(=O)N5C[C@H](O)C[C@H]5C(=O)NCc5ccc(-c6scnc6C)cc5)C(C)(C)C)CC4)cc3)nn2)cc1Cl [AHD2B-1-B3]
> 10 µM	<30%	COc1ccc(-c2ocnc2C(=O)NCCCn2cc(-c3ccc(CN4CCN(Cc5cccc(N6CCC(=O)NC6=O)c5)CC4)cn3)nn2)cc1Cl [AHD2B-1-A2]
> 10 µM	<30%	COc1ccc(-c2ocnc2C(=O)NCCCn2cc(CCCN3CCN(Cc4ccc(C(=O)NC5CCC(=O)NC5=O)nc4)CC3)nn2)cc1Cl (stereo not shown) [AHD2B-1-F12]
2.1 µM	49%	COc1ccc(-c2ocnc2C(=O)NCCCn2cc(CCCCN3CCN(Cc4ccc5c(N6CCC(=O)NC6=O)nn(C)c5c4)CC3)nn2)cc1Cl [AHD2B-1-D1]
> 10 µM	<30%	COc1ccc(-c2ocnc2C(=O)NCCCn2cc(COc3ccc(CN4CCN(Cc5cccc(N6CCC(=O)NC6=O)c5)CC4)cc3)nn2)cc1Cl [AHD2B-1-A3]
> 10 µM	<30%	COc1ccc(-c2ocnc2C(=O)NCCCn2cc(COCCOCCN3CCN(Cc4ccc(C(=O)NC5CCC(=O)NC5=O)nc4)CC3)nn2)cc1Cl (stereo not shown) [AHD2B-1-F10]
> 10 µM	<30%	COc1ccc(-c2ocnc2C(=O)NCCCn2cc(CCCOc3ccc(CN4CCN(Cc5ccc(N6CCC(=O)NC6=O)cc5)CC4)cc3)nn2)cc1Cl [AHD2B-1-G4]
> 10 µM	<30%	COc1ccc(-c2ocnc2C(=O)NCCCn2cc(CCCCN3CCN(CC(=O)N[C@H](C(=O)N4C[C@H](O)C[C@H]4C(=O)NCc4ccc(-c5scnc5C)cc4)C(C)(C)C)CC3)nn2)cc1Cl [AHD2B-1-B1]
> 10 µM	<30%	COc1ccc(-c2ocnc2C(=O)NCCCn2cc(CCCN3CCN(CC(=O)N[C@H](C(=O)N4C[C@H](O)C[C@H]4C(=O)NCc4ccc(-c5scnc5C)cc4)C(C)(C)C)CC3)nn2)cc1Cl [AHD2B-1-B12]
> 10 µM	<30%	COc1ccc(-c2ocnc2C(=O)NCCCn2cc(COCCOCCN3CCN(CC(=O)N[C@H](C(=O)N4C[C@H](O)C[C@H]4C(=O)NCc4ccc(-c5scnc5C)cc4)C(C)(C)C)CC3)nn2)cc1Cl [AHD2B-1-B10]
> 10 µM	<30%	COc1ccc(-c2ocnc2C(=O)NCCCn2cc(COc3ccc(CN4CCC5(C4)CN(Cc4ccc(N6CCC(=O)NC6=O)cc4)C5)cc3)nn2)cc1Cl [AHD2B-1-G6]
0.25 µM	32%	COc1ccc(-c2ocnc2C(=O)NCCCn2cc(CCCOc3ccc(CN4CCN(Cc5ccc(C(=O)NC6CCC(=O)NC6=O)nc5)CC4)cc3)nn2)cc1Cl (stereo not shown) [AHD2B-1-F4]
> 10 µM	<30%	COc1ccc(-c2ocnc2C(=O)NCCCn2cc(COCCOCCN3CCN(Cc4ccc(N5CCC(=O)NC5=O)cc4)CC3)nn2)cc1Cl [AHD2B-1-G10]
